Measured values from publication PMC4904373, “Azole Antifungal Sensitivity of Sterol 14α-Demethylase (CYP51) and CYP5218 from Malassezia globosa” (Scientific Reports, 2016).
Values after ≈ are worked out from the molar mass of the structure shown. Values joined by “and” are separate entries in the source; they are usually repeats but may differ in a detail not shown here. Equal values may be shown once.

Experiments:
M. globosa CYP5218 [1] = target: T1, M. globosa CYP5218 (Malassezia globosa, UniProt A8QCD3, A3L/A5L/F6A/I7V/S4L/S8F); experiment: biochemical; type: binding
Procedure: Reduced carbon monoxide difference spectroscopy[46][47] and absolute spectra between 700 and 300 nm were used to determine cytochrome P450 concentrations. Substrate and azole binding studies were performed[31][48] using 2.5 mM stock sterol solutions in 40% (wt/vol) (2-hydroxypropyl)-β-cyclodextrin (HPCD), 4 mg ml^−1 solutions of fatty acids in dimethylformamide (DMF), and stock 0.05, 0.1 and 0.2 mg ml^−1 solutions of azole antifungal agents in dimethylsulfoxide (DMSO). Sterols were titrated against 5 μM CYP51, fatty acids were titrated against 4 μM CYP5218 and azole antifungal agents were titrated against 2 μM CYP51 and CYP5218. The absorbance difference spectrum between 500 and 350 nm was determined after each incremental addition of ligand with saturation curves constructed from ΔApeak-trough against ligand concentration. […] The dissociation constants of the enzyme-azole complex were determined by non-linear regression (Levenberg-Marquardt algorithm) using a rearrangement of the Morrison equation for tight ligand binding. ProFit 6.1.12 (QuantumSoft, Zurich, Switzerland) was used for curve-fitting data. All ligand-binding studies were performed at 22 ± 2 °C and in triplicate. All spectral determinations were made using a Hitachi U-3310 UV/VIS spectrophotometer (San Jose, California).

M. globosa CYP51 [2] = target: T2, M. globosa CYP51 (Malassezia globosa, UniProt A8Q3I7, A7V/E4L/G6A/I5L/L2A/Q3L/W8F); experiment: biochemical; type: binding
Procedure: (§1) Reduced carbon monoxide difference spectroscopy[46][47] and absolute spectra between 700 and 300 nm were used to determine cytochrome P450 concentrations. Substrate and azole binding studies were performed[31][48] using 2.5 mM stock sterol solutions in 40% (wt/vol) (2-hydroxypropyl)-β-cyclodextrin (HPCD), 4 mg ml^−1 solutions of fatty acids in dimethylformamide (DMF), and stock 0.05, 0.1 and 0.2 mg ml^−1 solutions of azole antifungal agents in dimethylsulfoxide (DMSO). Sterols were titrated against 5 μM CYP51, fatty acids were titrated against 4 μM CYP5218 and azole antifungal agents were titrated against 2 μM CYP51 and CYP5218. The absorbance difference spectrum between 500 and 350 nm was determined after each incremental addition of ligand with saturation curves constructed from ΔApeak-trough against ligand concentration. The dissociation constants (Kd) for sterols and fatty acids were determined by non-linear regression (Levenberg-Marquardt algorithm) using the Michaelis-Menten equation. The dissociation constants of the enzyme-azole complex were determined by non-linear regression (Levenberg-Marquardt algorithm) using a rearrangement of the Morrison equation for tight ligand binding. ProFit 6.1.12 (QuantumSoft, Zurich, Switzerland) was used for curve-fitting data. All ligand-binding studies were performed at 22 ± 2 °C and in triplicate. All spectral determinations were made using a Hitachi U-3310 UV/VIS spectrophotometer (San Jose, California).

M. globosa CYP5218 [3] = target: T1, M. globosa CYP5218; experiment: biochemical; type: binding; conditions: for Kd: azole titrated against 2 μM CYP5218; for azole binding to CYP5218 (binding spectra): 2 μM CYP5218, result in words
Procedure: as §1

M. globosa ATCC MYA-4612 = experiment: M. globosa MIC100 determination; type: cell-based, Malassezia globosa; conditions: Malassezia globosa, 168 h; modified Dixon medium, 30 °C, 7 days; read-out: MIC100
Procedure: M. globosa ATCC MYA-4612 was grown for 7 days at 30 °C in modified Dixon medium (3.6% malt extract, 2% desiccated ox-bile, 1% Tween 40, 0.6% peptone, 0.2% glycerol, 0.2% oleic acid, pH adjusted to 6 with HCl) until a culture density of 1.5 × 10^5 cells ml^−1 was obtained. Cells from 3 ml of stock culture were harvested, suspended in 1 ml of saline and used to inoculate 30 ml of fresh modified Dixon medium for use as M. globosa inoculums in MIC determinations. Stock azole concentrations of 1600, 800, 400, 200, 100, 50, 25, 12.5, 6.25, 3.125 and 0 μg ml^−1 were prepared in DMSO. These were diluted ten-fold with fresh modified Dixon media and 20 μl of the diluted azole solutions were then mixed with 180 μl of M. globosa inoculum in microtiter plate wells to yield final azole concentrations of 16, 8, 4, 2, 1, 0.5, 0.25, 0.125, 0.0625, 0.03125 and 0 μg ml^−1. The microtiter plates were incubated at 30 °C for 7 days and then read. Each azole MIC100 determination was performed in triplicate.

M. globosa CYP51 [4] = target: T2, M. globosa CYP51; conditions: 0.5 μM CYP51, 50 μM sterol substrate
Procedure: (§2) Sterol metabolites were recovered by extraction with ethyl acetate followed by derivatization with 0.1 ml N,O-bis(trimethylsilyl)trifluoroacetamide (BSTFA) : trimethylchlorosilane (TMCS) (99:1) and 0.3 ml anhydrous pyridine (2 h at 80 °C) prior to analysis by gas chromatography mass spectrometry (GC/MS)[53].

M. globosa CYP5218 [5] = target: T1, M. globosa CYP5218; conditions: 100 μM fatty acid, 1 hour to overnight (~16 h), three different cytochrome P450 reductase redox partners
Procedure: The CYP5218 fatty acid reconstitution assay system used was based on that previously described by Guengerich[54] and contained 200 nM of CYP5218, 500 nM of cytochrome P450 reductase (A. fumigatus CPR1[52]) or H. sapiens CPR[55] or C. albicans CPR[56], 50 μM DLPC, 100 μM fatty acid (lauric acid, myristic acid, palmitic acid, palmitoleic acid, oleic acid and linoleic acid), 4 mM glucose-6-phosphate, 3 U/ml yeast glucose-6-phosphate dehydrogenase in a final volume of 500 μl with 0.1 M potassium phosphate (pH 7.4). Assay mixtures were incubated at 37 °C for 5 min prior to initiation with 4 mM β-NADPHNa4 and then incubated for a further 60 min or overnight (~16 h) at 37 °C. Fatty acid metabolites were recovered by extraction with dichloromethane and dried in a vacuum centrifuge. Samples were derivatized with 200 μl anhydrous pyridine and 250 μl BSTFA:TMCS (99:1) (30 min at 80 °C) and extracted with 500 μl of hexane, prior to analysis by GC/MS (Thermo GC Trace 1300 and ISQ MS). GC analysis was performed with a 5% phenyl methylpolysiloxane column (DB5) (Agilent Technologies). The oven programme was as follows: initial: 70 °C, with 3 min hold; ramp: 10 °C min^−1 to 180 °C (held for 2 min), 10 °C min^−1 to 250 °C (held for 2 min) and 10 °C min^−1 to 280 °C (held for 2 min). Data were analyzed using Thermo Xcalibur 2.2 software.

M. globosa [6] = conditions: cited from earlier work
M. globosa CYP51 [7] = target: T2, M. globosa CYP51; experiment: biochemical; conditions: IC50, 0.5 μM CYP51, CYP51:AfCPR1 1:2, 50 μM lanosterol as substrate
Procedure: as §2

Candida maltosa CYP52A4 = tested on: Candida maltosa CYP52A4; set-up: method as in PMID 8645001; conditions: cited from earlier work
M. globosa [8] = experiment: Sterol analysis of azole-treated M. globosa; type: cell-based, Malassezia globosa; conditions: 0.125 μg ml^−1 ketoconazole
Procedure: Individual sterols were identified by reference to relative retention times, mass ions and fragmentation patterns. Sterol composition was calculated using peak areas.

[9] = CYP5218 Kd (μM) Eadie-Hofstee, 4 μM CYP5218, type I spectra, mean of three replicates with SD
[10] = CYP5218 Kd (μM) Michaelis-Menten, 4 μM CYP5218, type I spectra, mean of three replicates with SD
[11] = 4 μM CYP5218, type I spectra, mean of three replicates with SD

T2 sequence (A8Q3I7 whole entry L2A/Q3L/E4L/I5L/G6A/A7V/W8F): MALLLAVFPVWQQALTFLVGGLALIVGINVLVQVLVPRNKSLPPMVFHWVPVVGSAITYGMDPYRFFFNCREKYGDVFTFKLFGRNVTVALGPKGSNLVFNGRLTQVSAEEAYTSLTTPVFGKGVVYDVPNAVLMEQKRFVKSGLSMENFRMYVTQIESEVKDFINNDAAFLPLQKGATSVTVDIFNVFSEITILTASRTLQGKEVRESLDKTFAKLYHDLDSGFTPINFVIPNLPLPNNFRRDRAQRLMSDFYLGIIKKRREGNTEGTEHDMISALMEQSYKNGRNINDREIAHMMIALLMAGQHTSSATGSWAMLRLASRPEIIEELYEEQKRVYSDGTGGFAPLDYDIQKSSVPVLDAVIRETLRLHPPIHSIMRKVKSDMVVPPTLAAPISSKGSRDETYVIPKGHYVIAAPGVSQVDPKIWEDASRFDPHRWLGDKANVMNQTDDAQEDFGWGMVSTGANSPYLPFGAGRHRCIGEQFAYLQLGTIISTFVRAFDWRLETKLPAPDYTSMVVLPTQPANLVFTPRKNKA

## CCCC/C=C\CCCCCCCC(=O)O [Myristoleic acid, myristoleic acid]
M. globosa CYP5218 [1]; [9]
  Kd: 151 ± 8 µM
M. globosa CYP5218 [1]; [10]
  Kd: 158 ± 20 µM

## C[C@@H](c1ncncc1F)[C@](O)(Cn1cncn1)c1ccc(F)cc1F [voriconazole]
M. globosa CYP51 [2]
  Kd: 0.008 ± 0.005 µM
M. globosa CYP5218 [3]
  Kd: ~107 µM
M. globosa ATCC MYA-4612
  MIC: 1 µg/mL (≈ 2.86 µM)

## C=C(CC[C@@H](C)[C@H]1CC[C@@]2(C)C3=C(CC[C@]12C)[C@@]1(C)CC[C@H](O)[C@@H](C)[C@@H]1CC3)C(C)C [obtusifoliol]
M. globosa CYP51 [2]
  Kd: 28 µM
M. globosa CYP51 [4]
  turnover number: 3.4 min⁻¹

## CCCCC/C=C\C/C=C\C/C=C\C/C=C\CCCC(=O)O [Arachidonic acid, arachidonic acid]
M. globosa CYP5218 [1]; [9]
  Kd: 256 ± 36 µM
M. globosa CYP5218 [1]; [10]
  Kd: 264 ± 34 µM

## CCCCCC/C=C\CCCCCCCC(=O)O [Palmitoleic acid, palmitoleic acid]
M. globosa CYP5218 [5]
  product formation in CYP5218 reconstitution assay: no observed product formation
M. globosa CYP5218 [1]; [9]
  Kd: 114 ± 5 µM
M. globosa CYP5218 [1]; [10]
  Kd: 113 ± 7 µM

## CC[C@@H]([C@H](C)O)n1ncn(-c2ccc(N3CCN(c4ccc(OC[C@@H]5CO[C@@](Cn6cncn6)(c6ccc(F)cc6F)C5)cc4)CC3)cc2)c1=O [posaconazole]
M. globosa [6]
  MIC values previously reported: 0.06 µg/mL (≈ 0.0856 µM)

## CCCCC/C=C\C/C=C\CCCCCCCC(=O)O [linoleic acid]
M. globosa CYP5218 [5]
  product formation in CYP5218 reconstitution assay: no observed product formation
M. globosa CYP5218 [1]; [9]
  Kd: 36 ± 6 µM
M. globosa CYP5218 [1]; [10]
  Kd: 36 µM

## CCCCCCCCCCCCCCCC [n-hexadecane]
M. globosa CYP5218 [1]; result in words
  binding spectra with CYP5218: No binding spectra

## CCC(C)n1ncn(-c2ccc(N3CCN(c4ccc(OCC5COC(Cn6cncn6)(c6ccc(Cl)cc6Cl)O5)cc4)CC3)cc2)c1=O (stereo not shown) [itraconazole]
M. globosa CYP51 [2]
  Kd: 0.002 ± 0.001 µM
M. globosa CYP5218 [3]
  azole binding to CYP5218 (binding spectra): type II binding spectra
  Kd: ~0.4 µM and 0.407 µM
M. globosa ATCC MYA-4612
  MIC: 0.0625 µg/mL (≈ 0.0886 µM)
M. globosa CYP51 [7]
  IC50: 0.188 ± 0.008 µM

## CCCCCCCCCCCCCCCCCC(=O)O [Stearic acid, stearic acid]
M. globosa CYP5218 [1]; [11]
  CYP5218 Kd (μM) Eadie-Hofstee: no fit ^a
  CYP5218 Kd (μM) Michaelis-Menten: no fit ^a

## CCCCCCCCCCCC(=O)O [Lauric acid, lauric acid]
Candida maltosa CYP52A4
  Kd: ~110 µM
M. globosa CYP5218 [5]
  product formation in CYP5218 reconstitution assay: no observed product formation
M. globosa CYP5218 [1]; [9]
  Kd: 136 ± 3 µM
M. globosa CYP5218 [1]; [10]
  Kd: 136 ± 4 µM

## CC(=O)N1CCN(c2ccc(OCC3COC(Cn4ccnc4)(c4ccc(Cl)cc4Cl)O3)cc2)CC1 (stereo not shown) [ketoconazole]
M. globosa CYP51 [2]
  Kd: 0.002 ± 0.001 µM
M. globosa CYP5218 [3]
  azole binding to CYP5218 (binding spectra): type II binding spectra
  Kd: ~1.6 µM
M. globosa [8]
  sterol fraction (%) 4,4-dimethylzymosterol: 0%
  sterol fraction (%) Eburicol: 30.33%
  sterol fraction (%) Episterol: 0%
  sterol fraction (%) Ergosta-7-enol: 1.58%
  sterol fraction (%) Ergosta-8,22-dienol: 1.89%
  sterol fraction (%) Ergosta-8-enol: 2.23%
  sterol fraction (%) Ergosterol: 51.50%
  sterol fraction (%) Fecosterol: 0.98%
  sterol fraction (%) Obtusifoliol: 0.18%
M. globosa [8]; cholesterol assimilated from growth media
  sterol fraction (%) Cholesterol: 1.92%
M. globosa ATCC MYA-4612
  MIC: 0.25 µg/mL (≈ 0.47 µM)
M. globosa CYP51 [7]
  IC50: 0.176 ± 0.016 µM
